Patent publication US20020128193A1, “Retro-inverso prosaposin-derived peptides and use thereof” (priority 1999, published 2002)
Converted amounts (≈) assume the structure as drawn. Where two headings read alike, the source gives them in different places. Blank lines part the entries; values can stand above or below the molecule they belong to. Non-standard residues stand in square brackets, D forms with d. Residues, ends and D or L forms follow the SMILES beside them. No end group written: not given here.

Tests used:
[1] = test system: NS20Y neuroblastoma cells; conditions: for Bioactive?: neurite outgrowth, 0-8 ng/ml peptide, 24 hours
Protocol: NS20Y neuroblastoma cells were grown in DMEM containing 10% fetal calf serum (FCS). Cells were removed with trypsin and plated in 30 mm petri dishes onto glass coverslips. […] Cells were cultured for an additional 24 hours, washed with PBS and fixed with Bouin's solution (saturated aqueous picric acid/formalin/acetic acid 15:5:1) for 30 minutes. Fixative was removed with PBS and neurite outgrowth was scored under a phase contrast microscope. […] At least 200 cells were scored in different portions of each dish to determine the percentage of neurite bearing cells and assays were performed in duplicate.
The ED50 value is defined as the half maximal concentration for maximal neurite outgrowth and neural protection in ng/ml.

[2] = Localization and integrity of 125I-peptide D8 in organs after intramuscular or oral administration; type: in vivo, Sprague-Dawley rat; conditions: for D8 in tissue: Brain / D8 in tissue: Eyes / D8 in tissue: Heart / D8 in tissue: Kidney 1 / D8 in tissue: Kidney 2 / D8 in tissue: Liver / D8 in tissue: Lung / D8 in tissue: Muscle / D8 in tissue: Sciatic Nerve / D8 in tissue: Spinal Cord / D8 in tissue: Spleen: 200 μg/kg, rat; for crossing of the blood brain barrier: iodinated D8, rat, found in brain after oral administration
Protocol: Peptide D8 (SEQ ID NO: 4) was iodinated with ^125I according to the manufacturer's instructions (Pierce Chemical Co., Rockford, Ill.), and 200 μg/kg in PBS was injected intramuscularly into, or administered orally to, an adult male Sprague-Dawley rat. […] Results below give ng/g of […] in each tissue after conversion of cpm to nanograms (Table 2). All organs studied contained 90% or greater intact D8. The trophic concentration was estimated to be about 0.2 ng/g over 20 min.

EAE rats = assay: Reversal of demyelination in experimental allergic encephalomyelitis (EAE) rat model; type: in vivo, Lewis rats; conditions: oral D8 100 μg/kg daily
Protocol: Experimental allergic encephalomyelitis (EAE) is a rat model of human multiple sclerosis (MS). In rats, EAE is induced by injecting foreign protein (guinea pig spinal cord) which results in inflammation and demyelination in white matter 11 days later.
EAE was induced in Lewis rats by injection of an emulsion of guinea pig spinal cord and complete Freund's adjuvant (CFA). At day 12-14, when weakness was evident, treatment with D8 (SEQ ID NO: 4) was begun (100 μg/kg orally in PBS via a stomach tube) and continued for 16 days every day. Six rats were injected with vehicle only. The number and size of demyelinating lesions (plaques) in the spinal cord per mm^2 was scored at […].
After 16 days of oral treatment with D8 (100 μg/kg/day) beginning after the onset of EAE at 14 days, spinal cord lesions were examined and the number of remyelinated axons per lesion were counted.

[3] = test system: neuroblastoma cells and mouse cerebellar explants; conditions: cited from earlier work
[4] = test system: choline acetyltransferase; conditions: neuroblastoma cells in vitro; cited from earlier work
neuroblastoma cells = neuroblastoma cells in vitro; cited from earlier work
myelination = conditions: cited from earlier work
[5] = half maximal concentration for maximal neurite outgrowth and neural protection, NS20Y cells

D8 in tissue: Brain ([2]; intramuscular, 20 min): 1.00 ng/g
D8 in tissue: Eyes ([2]; intramuscular, 20 min): 13.9 ng/g
D8 in tissue: Heart ([2]; intramuscular, 20 min): 9.8 ng/g
D8 in tissue: Kidney 1 ([2]; intramuscular, 20 min): 395 ng/g
D8 in tissue: Kidney 2 ([2]; intramuscular, 20 min): 405 ng/g
D8 in tissue: Liver ([2]; intramuscular, 20 min): 8.0 ng/g
D8 in tissue: Lung ([2]; intramuscular, 20 min): 43.0 ng/g
D8 in tissue: Muscle ([2]; intramuscular, 20 min): 19.7 ng/g
D8 in tissue: Sciatic Nerve ([2]; intramuscular, 20 min): 36.7 ng/g
D8 in tissue: Spinal Cord ([2]; intramuscular, 20 min): 2.90 ng/g
D8 in tissue: Spleen ([2]; intramuscular, 20 min): 41.7 ng/g
crossing of the blood brain barrier [2]: can cross the blood brain barrier
crossing of the blood brain barrier ([2]; listed as SEQ ID NO: 4): crosses the blood brain barrier
D8 in tissue: Brain ([2]; oral, 25 min): 5.62 ng/g
D8 in tissue: Eyes ([2]; oral, 25 min): 4.66 ng/g
D8 in tissue: Heart ([2]; oral, 25 min): 3.26 ng/g
D8 in tissue: Kidney 1 ([2]; oral, 25 min): 201 ng/g
D8 in tissue: Kidney 2 ([2]; oral, 25 min): 217 ng/g
D8 in tissue: Liver ([2]; oral, 25 min): 5.6 ng/g
D8 in tissue: Lung ([2]; oral, 25 min): 526 ng/g
D8 in tissue: Muscle ([2]; oral, 25 min): 3.2 ng/g
D8 in tissue: Sciatic Nerve ([2]; oral, 25 min): 3.3 ng/g
D8 in tissue: Spinal Cord ([2]; oral, 25 min): 2.15 ng/g
D8 in tissue: Spleen ([2]; oral, 25 min): 4.9 ng/g
weight loss versus control animals (EAE rats): no difference in weight loss
Molecule: CC(C)C[C@@H](N)C(=O)N[C@H](CC(C)C)C(=O)N[C@H](CCC(=O)O)C(=O)N[C@H](CCC(=O)O)C(=O)N[C@H](CC(N)=O)C(=O)N[C@H](CC(N)=O)C(=O)N[C@H](CC(=O)O)C(=O)N[C@H](CC(C)C)C(=O)O [Peptide D8, D-leu-D-leu-D-glu-D-glu-D-asn-D-asn-D-asp-D-leu] (HELM PEPTIDE1{[dL].[dL].[dE].[dE].[dN].[dN].[dD].[dL]}$$$$V2.0; N-terminus and C-terminus assumed)
ED50 [1]: 0.01 ng/mL (≈ 0.0104 nM)

Molecule: CEFLVKEVTKLIDNNKTEKEIL [Peptide 22-mer, 22-mer peptide consisting of amino acids 8-29 of human saposin C]
neurite outgrowth ([3]; in both neuroblastoma cells and mouse cerebellar explants): stimulates neurite outgrowth
choline acetyltransferase activity [4]: stimulates choline acetyltransferase activity
cell death (neuroblastoma cells): prevents cell death

Molecule: LLEETANNDL [Peptide D5]
ED50 [1, 5]: 0.2 ng/mL
Bioactive? ([1]; NS20Y cells): YES

Molecule: TXLIDNNATEEILY, X=D-alanine (T[dA]LIDNNATEEILY) [Peptide D1]
ED50 [1, 5]: 1.00 ng/mL
Bioactive? ([1]; NS20Y cells): YES

Molecule: YKEVTKLIDNNKTEKEIL [Peptide 18-mer]
neurite outgrowth [3]: promotes neurite outgrowth

Molecule: YLIEETANNDLAT [Peptide D2]
ED50 [1, 5]: 0.8 ng/mL
Bioactive? ([1]; NS20Y cells): YES

Molecule: YLLEETANNDL [Peptide D4]
ED50 [1, 5]: 0.4 ng/mL
Bioactive? ([1]; NS20Y cells): YES

Molecule: YLLEETANNDLLAT [Peptide D3]
ED50 [1, 5]: 0.4 ng/mL
Bioactive? ([1]; NS20Y cells): YES

Molecule: YSLEKETKNNDLL [Peptide D6]
ED50 [1, 5]: 0.27 ng/mL
Bioactive? ([1]; NS20Y cells): YES

B1: saposin C: glycoprotein generated by proteolytic processing of prosaposin (protein, UniProt P07602 311-390, looked up)
Saposin-C: SDVYCEVCEFLVKEVTKLIDNNKTEKEILDAFDKMCSKLPKSLSEECQEVVDTYGSSILSILLEEVSPELVCSMLHLCSG
modifications: Saposin-C
notes: glycoprotein generated by proteolytic processing of prosaposin
neurite outgrowth [3]: stimulate neurite outgrowth
myelination (myelination): promote increased myelination
